Measurements reported in patent publication US7612054B2, “Dibenzo[b,f]oxepine-10-carboxamides and pharmaceutical uses thereof” (Novartis AG, priority 2003, dated 2009).

Structure (SMILES)	melting point
CCCCNC(=O)C(C)CC(O)C(Cc1ccccc1)NC(=O)C1=Cc2ccccc2Oc2cc(Cl)ccc21 (stereo not shown) [Example 9, 7-Chloro-dibenzo[b,f]oxepine-10-carboxylic acid (1-benzyl-4-butylcarbamoyl-2-hydroxy-pentyl)-amide]	153 to 155 °C
CCCCNC(=O)C(C)CC(O)C(Cc1ccccc1)NC(=O)c1cc2ccccc2c(=O)c2ccccc12 (stereo not shown) [Example 11, 5-Oxo-5H-dibenzo[a,d]cycloheptene-10-carboxylic acid (1-benzyl-4-butylcarbamoyl-2-hydroxy-pentyl)-amide]	229 to 230 °C
CCCCNC(=O)C(C)CC(O)C(Cc1cc(F)cc(F)c1)NC(=O)C1=Cc2ccccc2Oc2ccccc21 (stereo not shown) [Example 16, Dibenzo[b,f]oxepine-10-carboxylic acid [4-butylcarbamoyl-1-(3,5-difluorobenzyl)-2-hydroxy-pentyl]-amide]	174 to 176 °C
CCCCNC(=O)C(C)CC(O)C(Cc1cccc(F)c1)NC(=O)C1=Cc2ccccc2Oc2ccccc21 (stereo not shown) [Example 17, Dibenzo[b,f]oxepine-10-carboxylic acid [4-butylcarbamoyl-1-(3-fluorobenzyl)-2-hydroxy-pentyl]-amide]	204 to 207 °C
